Laboratory results as given in US20220257595A1, “MACITENTAN FOR USE IN TREATING PORTOPULMONARY HYPERTENSION” (ACTELION PHARMACEUTICALS LTD, priority 2019, published 2022).

Test system: patients with PoPH
Experiment: PORTICO: 6-minute walk test (6MWD)
Assay type: in vivo, human
Description: (iv) 6-minute walk test, including Borg dyspnea index: The 6MWT was performed at Screening, Baseline (Visit 2/Randomization), and then every Visit until EOT-DB or EOT-OL, whichever came last. It is a non-encouraged test that measures the distance walked by the patient in six minutes. It is important that for each individual patient the 6MWT was conducted under the same conditions throughout the study (e.g., same location, same tester, same time of day, with or without nasal oxygen therapy and where applicable with same flow rate as Baseline). The Borg dyspnea index was evaluated after each 6MWT. It rates dyspnea on a scale from 0 to 10.
Handling of missing data: For change from baseline to Weeks 4, 8 and 12 in 6MWD and WHO FC, the last available value (including baseline) was carried forward unless the patient died before, or on Day 42, 70, 98 (the upper limit treatment days of Weeks 4, 8 and 12 windows, respectively), in which case the following rules considering worst case were used to replace all the missing values from the week after death up to Week 12: • For 6MWD, worst fixed value was set to 0, • For WHO FC, worst fixed value was set to class IV, • For change from baseline to Week 12 in NT-proBNP, the same imputation rule as for PVR was applied as described herein.
Statistical analysis: The change from baseline to Week 12 in mRAP, mPAP, cardiac index, TPR and SVO2 were analyzed on the FAS (with imputation) using an ANCOVA with factors for treatment group, background PAH-specific therapy at baseline (Yes/No as per IXRS, randomization stratification factor), region (Europe/North America/Latin America as per IXRS, randomization stratification factor) and a covariate for baseline corresponding variable. Other RHC variables are listed only. WHO FC is summarized on the FAS (with imputation) by time point and treatment group using frequency tables. Changes from baseline in WHO FC were dichotomized as worsening (i.e., change >0) versus no change or improvement (i.e., change ≤0). Worsening was analyzed using a logistic regression model (exact) with covariates for treatment group, background PAH-specific therapy at baseline (Yes/No as per IXRS, randomization stratification factor) and region (Europe/North America/Latin America as per IXRS, randomization stratification factor). 6MWD is summarized on the FAS (with imputation) by time point and treatment group using descriptive statistics. Change from baseline to each time point is summarized similarly. Change from baseline in 6MWD (up to Week 12) was analyzed using a mixed-effect model repeated measure (MMRM) with factors for treatment group, time point, treatment by time interaction, background PAH-specific therapy at baseline (Yes/No as per IXRS, randomization stratification factor) and region (Europe/North America/Latin America as per IXRS, randomization stratification factor), and covariates for baseline 6MWD and WHO FC. An unstructured covariance matrix was used to account for the correlation between repeated measurements from the same patient. NT-proBNP is summarized on the FAS (with imputation) by time point and treatment group using descriptive statistics as well as geometric means and CVs. The ratio of Week 12 to baseline NT-proBNP is summarized similarly. The ratio versus baseline in NT-proBNP was log-transformed and analyzed using an ANCOVA with covariates for treatment group, background PAH-specific therapy at baseline (Yes/No as per IXRS, randomization stratification factor), region (Europe/North America/Latin America as per IXRS, randomization stratification factor) and baseline log NT-proBNP.
Supportive/sensitivity analyses: The main MMRM model analysis for 6MWD was also performed without stratification factors. […]

[1] = 10 mg o.d., FAS with imputation, N=43
[2] = MTS without imputation, macitentan in both DB and OL periods
[3] = MTS without imputation, macitentan only in OL period (DB placebo patients)

For `CCCNS(=O)(=O)Nc1ncnc(OCCOc2ncc(Br)cn2)c1-c1ccc(Br)cc1` [macitentan, N-[5-(4-Bromophenyl)-6-[2-[(5-bromo-2-pyrimidinyl)oxy]ethoxy]-4-pyrimidinyl]-N′-propylsulfamide], the “6MWD at Week 4, mean ± SD” value [1] was 392.5 ± 93.74 m, the “6MWD at Week 8, mean ± SD” value [1] was 390.3 ± 99.35 m and the “6MWD at Week 12, mean ± SD” value [1] was 392.2 ± 98.46 m. The “Change from baseline to Week 4 in 6MWD, mean ± SD” value [1] was 6.7 ± 44.55 m, the “Change from baseline to Week 8 in 6MWD, mean ± SD” value [1] was 4.5 ± 67.40 m and the “Change from baseline to Week 12 in 6MWD, mean ± SD” value [1] was 6.4 ± 65.74 m. For the same compound, the “LS mean difference (macitentan-placebo), change in 6MWD to Week 12, ANCOVA sensitivity analysis” value (FAS) was 10.05 m, the “Difference in LS means macitentan-placebo, change in 6MWD at Week 4” value (MMRM, FAS) was 23.02 m and the “Difference in LS means macitentan-placebo, change in 6MWD at Week 8” value (MMRM, FAS) was 14.47 m. For the same compound, the “Difference in LS means macitentan-placebo, change in 6MWD at Week 12” value (MMRM, FAS) was 9.73 m, the “Difference in LS means macitentan-placebo, change in 6MWD, overall” value (MMRM, FAS, Weeks 4-12 overall) was “Overall: 15.74 m” and the “Mean (±SD) change from baseline in 6MWD at Week 4” value [2] was 7.0±45.62 m. For the same compound, the “Mean (±SD) change from baseline in 6MWD at Week 24” value [2] was 22.0±42.55 m, the “Mean (±SD) change from macitentan baseline in 6MWD at Week 4” value [3] was 11.5±31.67 m and the “Mean (±SD) change from macitentan baseline in 6MWD at Week 12” value [3] was 13.9±39.27 m. The “Mean (±SD) observed difference at Week 12 (macitentan-placebo) in 6MWD” value (no imputation) was 18.4 m and the “Increase in walk distance from baseline to Week 24” value (patients originally randomised to macitentan, followed into open-label period) was 20 m.
